Where a name gives a salt, the structure may show the parent alone.
Assay: Timolol concentration of the aqueous humor after ophthalmic administration, collected with the bodily fluid-collecting device (LC/MS/MS)
Type: in vivo
Details: rabbit; single 40 μl ophthalmic dose of 0.5% timolol maleate sustained ophthalmic solution; aqueous humor 4 hours after administration; Method 1 (0.25, 0.5, 1, 2, 4 h) vs Method 2 (4 h only); FIG. 6
Protocol: Using a micropipette, a 0.5% timolol maleate sustained ophthalmic solution (produced by Santen Pharmaceutical Co., Ltd., Timoptol (registered trademark) XE ophthalmic solution 0.5%) was administered as a single dose of 40 μl near the upper portion of the bulbar conjunctiva of rabbit eyeballs retained using a retention can. The administration was performed on both eyes. A rabbit was retained using a retention can. 30 μl of a 10-fold diluted solution (dilution medium: physiological saline) of a 0.4% oxybuprocaine hydrochloride ophthalmic solution (produced by Santen Pharmaceutical Co., Ltd., Benoxil (registered trademark) ophthalmic solution 0.4%) was ophthalmically administered to the retained rabbit, and local anesthesia was applied. After gently stimulating the cornea with the tip of tweezers and confirming the disappearance of the corneal reflex, a lid retractor was attached. In the Example, a device with a 20-μl capillary attached to a 34 G injection needle was used as the bodily fluid-collecting device. After retaining the eyeball by sandwiching the upper bulbar conjunctiva with tweezers, the needle tip of the bodily fluid-collecting device was inserted into the anterior chamber via the cornea by two-step puncture while checking the curved surface of the cornea. […] After deproteinizing each sample, the timolol concentration of the aqueous humor was measured using the LC/MS/MS method.

timolol concentration of the aqueous humor at the final collection (Method 1, repeated collection from the same eye) compared with one-point collection (Method 2): equivalent
SMILES: CC(C)(C)NC[C@H](O)COc1nsnc1N1CCOCC1 [timolol, timolol maleate]
